# Source: US7223759B2, “Antibacterial 3,5-diaminopiperidine-substituted aromatic and heteroaromatic compounds” (Anadys Pharmaceuticals, Inc., priority 2003, dated 2007)
# Like-named read-outs stand apart in the source and are kept apart here.
# Tested on: Escherichia coli (ATCC25922) or Staphylococcus aureus (ATCC25923)
# Assay: Antibacterial MIC, microdilution method in Mueller-Hinton medium
# Type: cell-based
# Conditions: for MIC: Escherichia coli, 18 h, read-out: Potency (MIC)
# Method in brief: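 Read after 18 h incubation at 35° C, MIC is the lowest compound level that blocked growth. Compounds were tested in duplicate over 64–0.5 μg/ml two-fold dilutions using Mueller-Hinton microdilution per NCCLS standard.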
# [1] = MIC in E. coli or S. aureus, two-fold serial dilutions 64 to 0.5 μg/ml in duplicate, 18 hours of incubation at 35° C.
Compound,MIC,MIC [1],other results
"N[C@@H]1C[C@H](N)CN(c2nc(Nc3ccc(NC(=O)c4ccc(N5Cc6ccccc6C5)cc4O)c(O)c3)nc(N3C[C@H](N)C[C@H](N)C3)n2)C1 [N-{4-[4-(1,3-dihydro-isoindol-2-yl)-2-hydroxy-benzoylamino]-3-hydroxy-phenyl}-4,6-Bis-((3R,5S)-3,5-diamino-piperidin-1-yl)-[1,3,5]triazine-2-amine]",< 64 µg/mL,–,–
"N[C@@H]1C[C@H](N)CN(c2nc(Nc3ccc(NC(=O)c4ccc(N5Cc6ccccc6C5)cc4O)cc3)nc(N3C[C@H](N)C[C@H](N)C3)n2)C1 [N-{4-[4-(1,3-dihydro-isoindol-2-yl)-2-hydroxy-benzoylamino]-phenyl}-4,6-Bis-((3R,5S)-3,5-diamino-piperidin-1-yl)-[1,3,5]triazine-2-amine]",–,< 16 µg/mL,–
"N-(4-phenylazo-phenyl)-4,6-Bis-((3R,5S)-3,5-0diamino-piperidin-1-yl)-[1,3,5]triazine-2-amine",–,–,Potency (MIC) [1]: ++ (++ means MIC<16 μg/ml in E. coli or S. aureus)
"N[C@@H]1C[C@H](N)CN(c2nc(Nc3ccc(NC(=O)c4cc(Cl)cnc4O)cc3)nc(N3C[C@H](N)C[C@H](N)C3)n2)C1 [N-{4-[(5-chloro-2-hydroxy-pyridine-3-carbonyl)-amino]-phenyl}-4,6-Bis-((3R,5S)-3,5-diamino-piperidin-1-yl)-[1,3,5]triazine-2-amine]",< 64 µg/mL,–,–
"CC(=O)c1ccc(Nc2nc(N3C[C@H](N)C[C@H](N)C3)nc(N3C[C@@H](N)C[C@H]3CN)n2)cc1 [1-{4-[4-((2S,4S)-4-Amino-2-aminomethyl-pyrrolidin-1-yl)-6-((3R,5S)-3,5-diamino-piperidin-1-yl)-[1,3,5]triazin-2-ylamino]-phenyl}-ethanone]",> 64 µg/mL,–,–
"Cc1ccc(C(=O)Nc2ccc(Nc3nc(N4CCCCC4)nc(N4CCCC4)n3)cc2O)cc1.Cl [drawing 244, N-{4-[4-((3R,5S)-3,5-Diamino-piperidin-1-yl)-6-((3R,4S)-3,4-dihydrooxy-pyrrolidin-1-yl)-[1,3,5]triazin-2-ylamino]-2-hydroxy-phenyl}-4-methyl-benzamide]",–,> 64 µg/mL,–
"Nc1cncc(Nc2nc(N3C[C@H](N)C[C@H](N)C3)nc(N3C[C@H](N)C[C@H](N)C3)n2)c1 [N-(5-amino-pyridin-3-yl)-4,6-Bis-((3R,5S)-3,5-diamino-piperidin-1-yl)-[1,3,5]triazine-2-amine]",> 64 µg/mL,–,–
"Cl.O=C(Nc1ccc(Nc2nc(N3CCCCC3)nc(N3CCCC3)n2)cc1O)c1ccc(Cl)cc1 [4-Chloro-N-{4-[4-((3R,5S)-3,5-diamino-piperidin-1-yl)-6-((3R,4S)-3,4-diamino-pyrrolidsin-1-yl)-[1,3,5]triazin-2-ylamino]-2-hydroxy-phenyl}-benzamide]",–,< 64 µg/mL,–
"COc1cccc(S(=O)(=O)Nc2ccc(Nc3nc(N4C[C@H](N)C[C@H](N)C4)nc(N4C[C@H](N)C[C@H](N)C4)n3)cc2O)c1 [N-[3-hydroxy-4-(3-methoxy-benzenesulfonylamino)-phenyl]-4,6-Bis-((3R,5S)-3,5-diamino-piperidin-1-yl)-[1,3,5]triazine-2-amine]",< 64 µg/mL,–,–
"N[C@@H]1C[C@H](N)CN(c2nc(Nc3ccc(S(=O)(=O)Nc4ccc5cn[nH]c5c4)cc3)nc(N3CCC[C@@H](O)C3)n2)C1 [4-[4-((3S,5R)-3,5-Diamino-piperidin-1-yl)-6-((R)-3-hydroxy-piperidin-1-yl)-[1,3,5]triazin-2-ylamino]-N-(1H-indazol-6-yl)-benzenesulfonamide]",> 64 µg/mL,–,–
"Cl.N[C@@H]1CC(c2nc(Nc3ccc(C(=O)CC(=O)Nc4ccccc4N4CCOCC4)cc3)nc(N3C[C@H](N)C[C@H](N)C3)n2)C[C@H](N)C1 (stereo partly drawn) [N-{4-[2-(2-morpholin-4-yl-phenylcarbamoyl)-acetyl]-phenytl}-4,6-Bis-((3R,5S)-3,5-diamino-piperidin-1-yl)-[1,3,5]triazine-2-ammine]",–,< 16 µg/mL,–
"Cc1cc(Nc2nc(N3C[C@H](N)C[C@H](N)C3)nc(N3C[C@H](N)C[C@H](N)C3)n2)ccc1[N+](=O)[O-] [N-(3-methyl-4-nitro-phenyl)-4,6-Bis-((3R,5S)-3,5-diamino-piperidin-1-yl)-[1,3,5]triazine-2-amine]",< 64 µg/mL,–,–
"N[C@@H]1C[C@H](N)CN(c2nc(Nc3ccc(S(=O)(=O)Nc4ccccn4)cc3)nc(N3C[C@H](N)C[C@H](N)C3)n2)C1 [N-[4-(pyridin-2-ylsulfamoyl)-phenyl]-4,6-Bis-((3R,5S)-3,5-diamino-piperidin-1-yl)-[1,3,5]triazine-2-amine]",> 64 µg/mL,–,–
"NC1CN(c2nc(Nc3ccc(NC(=O)c4ccc(Cl)cc4)c(O)c3)nc(N3C[C@H](N)C[C@H](N)C3)n2)C1 [N-{4-[4-(3-Amino-azetidin-1-yl)-6-((3R,5S)-3,5-diamino-piperidin-1-yl)-[1,3,5]triazin-2-ylamino]-2-hydroxy-phenyl}-4-chloro-benzamide]",< 16 µg/mL,–,–
"N[C@@H]1C[C@H](N)CN(c2nc(Nc3ccc4c(c3)-c3ccccc3C4=O)nc(N3C[C@@H](N)[C@@H](N)C3)n2)C1 [3-[4-((3R,5S)-3,5-Diamino-piperidin-1-yl)-6-((3R,4S)-3,4-diamino-pyrrolidin-1-yl)-[1,3,5]triazin-2-ylamino]-fluoren-9-one]",< 64 µg/mL,–,–
"N[C@@H]1C[C@H](N)CN(c2nc(N3C[C@H](N)C[C@H](N)C3)c(Cl)c(Nc3ccc(NC(=O)c4ccc5ccccc5c4O)cc3)c2Cl)C1 [1-Hydroxy-naphthalene-2-carboxylic acid [4-(3,5-dichloro-2,6-Bis-((3R,5S)-3,5-diamino-piperidin-1-yl)-pyridin-4-ylamino)-phenyl]-amide]",< 16 µg/mL,–,–
"COC(=O)c1ccccc1Nc1nc(N2C[C@H](N)C[C@H](N)C2)nc(N2C[C@H](N)C[C@H](N)C2)n1 [2-[4,6-Bis-((3R,5S)-3,5-diamino-piperidin-1-yl)-[1,3,5]triazin-2-ylamino]-benzoic acid methyl ester]",–,> 64 µg/mL,–
"N[C@@H]1C[C@H](N)CN(c2nc(Nc3ccc(NC(=O)c4ccc(Cl)cc4)c(O)c3)nc(N3CCN(CC(=O)N4CCOCC4)CC3)n2)C1 [4-Chloro-N-(4-{4-((3S,5R)-3,5-diamino-piperidin-1-yl)-6-[4-(2-morpholin-4-yl-2-oxo-ethyl)-piperazin-1-yl]-[1,3,5]triazin-2-ylamino}-2-hydroxy-phenyl)-benzamide]",> 64 µg/mL,–,–
"Cl.NC1C[C@@H](N)CN(c2nc(Nc3ccc(O)cc3[N+](=O)[O-])nc(N3C[C@H](N)C[C@H](N)C3)n2)C1 (stereo in doubt) [N-(4-hydroxy-2-nitro-phenyl)-4,6-Bis-((3R,5S)-3,5-diamino-piperidin-1-yl)-[1,3,5]triazine-2-amine]",–,> 64 µg/mL,–
"N[C@@H]1C[C@H](N)CN(c2nc(Nc3ccccc3S(N)(=O)=O)nc(N3C[C@H](N)C[C@H](N)C3)n2)C1 [N-(2-sulfamoyl-phenyl)-4,6-Bis-((3R,5S)-3,5-diamino-piperidin-1-yl)-[1,3,5]triazine-2-amine]",–,> 64 µg/mL,–
"N[C@@H]1C[C@H](N)CN(c2nc(Nc3ccc(NC(=O)Cc4ccccc4)c(O)c3)nc(N3C[C@H](N)C[C@H](N)C3)n2)C1 [N-(3-hydroxy-4-phenylacetylamino-phenyl)-4,6-Bis-((3R,5S)-3,5-diamino-piperidin-1-yl)-[1,3,5]triazine-2-amine]",–,< 64 µg/mL,–
"N[C@@H]1C[C@H](N)CN(c2nc(Nc3ccc([N+](=O)[O-])c(Cl)c3)nc(N3C[C@H](N)C[C@H](N)C3)n2)C1 [N-(3-chloro-4-nitro-phenyl)-4,6-Bis-((3R,5S)-3,5-diamino-piperidin-1-yl)-[1,3,5]triazine-2-amine]",< 16 µg/mL,–,–
"N[C@@H]1C[C@H](N)CN(c2nc(Nc3ccc(C(=O)Nc4cccc(OC(F)(F)F)c4)c(O)c3)nc(N3C[C@H](N)C[C@H](N)C3)n2)C1 [N-[3-hydroxy-4-(3-trifluoromethoxy-phenylcarbamoyl)-phenyl]-4,6-Bis-((3R,5S)-3,5-diamino-piperidin-1-yl)-[1,3,5]triazine-2-amine]",< 16 µg/mL,–,–
"N[C@@H]1C[C@H](N)CN(c2cc(Nc3ccc(NC(=O)c4ccc5ccccc5c4O)cc3)cc(N3C[C@H](N)C[C@H](N)C3)n2)C1 [1-Hydroxy-naphthalene-2-carboxylic acid [4-(2,6-Bis-((3R,5S)-3,5-diamino-piperidin-1-yl)-pyridin-4-ylamino)-phenyl]-amide]",< 16 µg/mL,–,–
"COc1cccc(C(=O)Nc2ccc(Nc3nc(N4C[C@H](N)C[C@H](N)C4)nc(N4C[C@H](N)C[C@H](N)C4)n3)cc2)c1O [N-[4-(2-hydroxy-3-methoxy-benzoylamino)-phenyl]-4,6-Bis-((3R,5S)-3,5-diamino-piperidin-1-yl)-[1,3,5]triazine-2-amine]",< 64 µg/mL,–,–
"Cl.O=C(Nc1ccc(Nc2cc(N3CCCCC3)cc(N3CCCCC3)c2)cc1)c1ccc2ccccc2c1O [1-Hydroxy-naphthalene-2-cxarboxylicacid {4-[3-((3R,5S)-3,5-diamino-piperidin-1-yl)-5-((3S,5R)-3,5-diamino-piperidin-1-yl)-phenylamino]-phenyl}-amide]",–,< 16 µg/mL,–
"N-(4-thioureido-iminomethyl-phenyl)-4,6-Bis-((3R,5S)-3,5-diamino-piperidin-1-yl)-[1,3,5]triazine-2-amine",–,–,Potency (MIC) [1]: + (+ means MIC<64 μg/ml in E. coli or S. aureus)
"Cc1cc(O)c(C)c(O)c1C(=O)Nc1ccc(Nc2nc(N3C[C@H](N)C[C@H](N)C3)nc(N3C[C@H](N)C[C@H](N)C3)n2)cc1 [N-[4-(2,4-dihydroxy-3,6-dimethyl-benzoylamino)-phenyl]-4,6-Bis-((3R,5S)-3,5-diamino-piperidin-1-yl)-[1,3,5]triazine-2-amine]",< 16 µg/mL,–,–
"N[C@@H]1C[C@H](N)CN(c2nc(Nc3ccc(C(=O)Nc4ccc(Cl)c(Cl)c4)c(O)c3)nc(N3C[C@H](N)C[C@H](N)C3)n2)C1 [N-[4-(3,4-dichloro-phenylcarbamoyl)-3-hydroxy-phenyl]-4,6-Bis-((3R,5S)-3,5-diamino-piperidin-1-yl)-[1,3,5]triazine-2-amine]",< 16 µg/mL,–,–
